ChEMBL document CHEMBL1145489, “Isoniazid induces its own resistance in nonreplicating Mycobacterium tuberculosis” (Antimicrob Agents Chemother, 2007)

Experiments:
[1] = test system: Mycobacterium tuberculosis; experiment: Antimicrobial activity against Mycobacterium tuberculosis TB19 isolate at 0.1 ug/ml after 3 weeks; type: functional
[2] = test system: Mycobacterium tuberculosis; experiment: Antimicrobial activity against Mycobacterium tuberculosis TB7 isolate at 0.1 ug/ml after 2 weeks; type: functional
[3] = test system: Mycobacterium tuberculosis; experiment: Antimicrobial activity against Mycobacterium tuberculosis H37Rv at 0.4 ug/ml after 1 week by […] method; type: functional
[4] = test system: Mycobacterium tuberculosis; experiment: Antimicrobial activity against Mycobacterium tuberculosis H37Rv at 0.4 ug/ml after 4 weeks by […] method; type: functional
[5] = test system: Mycobacterium tuberculosis; experiment: Antimicrobial activity against Mycobacterium tuberculosis TB20 isolate at 0.1 ug/ml after 1 week; type: functional
[6] = test system: Mycobacterium tuberculosis; experiment: Antimicrobial activity against Mycobacterium tuberculosis TB19 isolate at 0.1 ug/ml after 2 weeks; type: functional
[7] = test system: Mycobacterium tuberculosis; experiment: Antimicrobial activity against Mycobacterium tuberculosis TB7 isolate at 0.4 ug/ml after 3 weeks; type: functional
[8] = Stability in BACTEC medium at 37 degC upto 4 weeks; type: physicochemical; conditions: 672 h
[9] = test system: Mycobacterium tuberculosis; experiment: Antimicrobial activity against Mycobacterium tuberculosis H37Rv at 0.4 ug/ml after 2 weeks by […] method; type: functional
[10] = test system: Mycobacterium tuberculosis; experiment: Antimicrobial activity against Mycobacterium tuberculosis TB7 isolate at 0.1 ug/ml after 4 weeks; type: functional
[11] = test system: Mycobacterium tuberculosis; experiment: Antimicrobial activity against Mycobacterium tuberculosis TB19 isolate at 0.1 ug/ml after 4 weeks; type: functional
[12] = test system: Mycobacterium tuberculosis; experiment: Antimicrobial activity against Mycobacterium tuberculosis H37Rv at 0.1 ug/ml after 2 weeks by […] method; type: functional
[13] = test system: Mycobacterium tuberculosis; experiment: Antimicrobial activity against Mycobacterium tuberculosis TB7 isolate at 0.4 ug/ml after 1 week; type: functional
[14] = test system: Mycobacterium tuberculosis; experiment: Antimicrobial activity against Mycobacterium tuberculosis TB20 isolate at 0.4 ug/ml after 3 weeks; type: functional
[15] = test system: Mycobacterium tuberculosis; experiment: Antimicrobial activity against Mycobacterium tuberculosis TB19 isolate at 0.1 ug/ml after 1 week; type: functional
[16] = test system: Mycobacterium tuberculosis; experiment: Antimicrobial activity against Mycobacterium tuberculosis TB19 isolate at 0.4 ug/ml after 2 weeks; type: functional
[17] = test system: Mycobacterium tuberculosis; experiment: Antimicrobial activity against Mycobacterium tuberculosis H37Rv at 0.1 ug/ml after 1 week by […] method; type: functional
[18] = test system: Mycobacterium tuberculosis; experiment: Antimicrobial activity against Mycobacterium tuberculosis TB20 isolate at 0.4 ug/ml after 2 weeks; type: functional
[19] = test system: Mycobacterium tuberculosis; experiment: Antimicrobial activity against Mycobacterium tuberculosis TB20 isolate at 0.4 ug/ml after 1 week; type: functional
[20] = test system: Mycobacterium tuberculosis; experiment: Antimicrobial activity against Mycobacterium tuberculosis H37Rv at 0.1 ug/ml after 3 weeks by […] method; type: functional
[21] = test system: Mycobacterium tuberculosis; experiment: Antimicrobial activity against Mycobacterium tuberculosis H37Rv at 0.4 ug/ml after 3 weeks by […] method; type: functional
[22] = test system: Mycobacterium tuberculosis; experiment: Antimicrobial activity against Mycobacterium tuberculosis H37Rv at 0.1 ug/ml after 4 weeks by […] method; type: functional
[23] = test system: Mycobacterium tuberculosis; experiment: Antimicrobial activity against Mycobacterium tuberculosis TB20 isolate at 0.1 ug/ml after 2 weeks; type: functional
[24] = test system: Mycobacterium tuberculosis; experiment: Antimicrobial activity against Mycobacterium tuberculosis TB19 isolate at 0.4 ug/ml after 4 weeks; type: functional
[25] = test system: Mycobacterium tuberculosis; experiment: Antimicrobial activity against Mycobacterium tuberculosis TB19 isolate at 0.4 ug/ml after 1 week; type: functional
[26] = test system: Mycobacterium tuberculosis; experiment: Antimicrobial activity against Mycobacterium tuberculosis TB7 isolate at 0.1 ug/ml after 3 weeks; type: functional
[27] = test system: Mycobacterium tuberculosis; experiment: Antimicrobial activity against Mycobacterium tuberculosis TB19 isolate at 0.4 ug/ml after 3 weeks; type: functional
[28] = test system: Mycobacterium tuberculosis; experiment: Antimicrobial activity against Mycobacterium tuberculosis TB7 isolate at 0.4 ug/ml after 4 weeks; type: functional
[29] = test system: Mycobacterium tuberculosis; experiment: Antimicrobial activity against Mycobacterium tuberculosis TB7 isolate at 0.1 ug/ml after 1 week; type: functional
[30] = test system: Mycobacterium tuberculosis; experiment: Antimicrobial activity against Mycobacterium tuberculosis TB7 isolate at 0.4 ug/ml after 2 weeks; type: functional
[31] = test system: Mycobacterium tuberculosis; experiment: Antimicrobial activity against Mycobacterium tuberculosis TB20 isolate at 0.4 ug/ml after 4 weeks; type: functional
[32] = test system: Mycobacterium tuberculosis; experiment: Antimicrobial activity against Mycobacterium tuberculosis TB20 isolate at 0.1 ug/ml after 4 weeks; type: functional
[33] = test system: Mycobacterium tuberculosis; experiment: Antimicrobial activity against Mycobacterium tuberculosis TB20 isolate at 0.1 ug/ml after 3 weeks; type: functional
[34] = test system: Mycobacterium tuberculosis; experiment: Antimicrobial activity against Mycobacterium tuberculosis H37Rv at 2 ug/ml after 2 weeks by […] method; type: functional
[35] = test system: Mycobacterium tuberculosis; experiment: Antimicrobial activity against Mycobacterium tuberculosis H37Rv at 2 ug/ml after 3 weeks at by […] method; type: functional
[36] = test system: Mycobacterium tuberculosis; experiment: Antimicrobial activity against Mycobacterium tuberculosis H37Rv at 2 ug/ml after 4 weeks by […] method; type: functional
[37] = test system: Mycobacterium tuberculosis; experiment: Antimicrobial activity against Mycobacterium tuberculosis H37Rv at 2 ug/ml after 1 week by […] method; type: functional

## NNC(=O)c1ccncc1 [ISONIAZID]
[1]
  CFU: 4.8 10^3/ml
[2]
  CFU: 7.6 10^3/ml
[3]
  CFU: 55 mL⁻¹
[4]
  CFU: 1.32 10^4/ml
[5]
  CFU: 2.4 10^2/ml
[6]
  CFU: 1.1 10^3/ml
[7]
  CFU: 1.2 10^4/ml
[8]
  Stability: Stable
[9]
  CFU: 3.6 10^3/ml
[10]
  CFU: 7.9 10^4/ml
[11]
  CFU: 7 10^3/ml
[12]
  CFU: 3.1 10^3/ml
[13]
  CFU: 0 mL⁻¹
[14]
  CFU: 7.5 10^4/ml
[15]
  CFU: 25 mL⁻¹
[16]
  CFU: 2 10^2/ml
[17]
  CFU: 1.2 10^3/ml
[18]
  CFU: 1.3 10^4/ml
[19]
  CFU: 40 mL⁻¹
[20]
  CFU: 2.4 10^4/ml
[21]
  CFU: 1.45 10^4/ml
[22]
  CFU: 1.22 10^5/ml
[23]
  CFU: 1.4 10^4/ml
[24]
  CFU: 4.8 10^4/ml
[25]
  CFU: 0 mL⁻¹
[26]
  CFU: 2.5 10^4/ml
[27]
  CFU: 3.4 10^4/ml
[28]
  CFU: 1.1 10^5/ml
[29]
  CFU: 1.7 10^5/ml
[30]
  CFU: 5.6 10^2/ml
[31]
  CFU: 8 10^4/ml
[32]
  CFU: 2.5 10^4/ml
[33]
  CFU: 1.6 10^4/ml

## CO[C@H]1/C=C/O[C@@]2(C)Oc3c(C)c(O)c4c(O)c(c(/C=N/N5CCN(C)CC5)c(O)c4c3C2=O)NC(=O)/C(C)=C\C=C\[C@H](C)[C@H](O)[C@@H](C)[C@@H](O)[C@@H](C)[C@H](OC(C)=O)[C@@H]1C [RIFAMPIN]
[34]
  CFU: 0 mL⁻¹
[35]
  CFU: 0 mL⁻¹
[36]
  CFU: 0 mL⁻¹
[37]
  CFU: 0 mL⁻¹
